Experiments:
[1] = target: CCR5 (Homo sapiens (Human), UniProt P51681); experiment: Calcium mobilization assay in HOS-CCR5 cells; type: cell-based
Description: We then conducted the calcium mobilization assay to further test both the agonist and antagonist properties of the newly synthesized compounds in the HOS-CCR5 (stably transfected for the expression of CCR5) cells using our reported protocol, as calcium mobilization is associated with the activation of CCR5. Prior to the assay, the HOS-CCR5 cells were transiently transfected with a Gqi5 to boost calcium signaling levels.
In the antagonism assay, these compounds were assessed for their ability to inhibit CCL5-stimulated Ca^2+ mobilization.
HOS-CCR5 cells were transfected with Gqi5 pcDNA16 using Lipofectamine 2000 (Invitrogen) according to the manufacturer's recommended procedure and maintained in RPMI 1640 supplemented with 10% fetal bovine serum, 100 μg/mL penicillin, 100 μg/mL streptomycin, and 1 mg/mL G418 at 37° C. and 5% C02. 48 h after transfection, a total of 2,500,000 cells were spun down and brought back up in 8 mL of 50:1 HBSS: HEPES assay buffer. Cells were then plated at 25,000 cells per well into a clear bottom, black 96-well plate (Greiner Bio-one) and 50 μL of Fluo4 loading buffer [40 μL of 2 μM Fluo4-AM (Invitrogen), 100 μL of 2.5 mM probenecid, in 5 mL of assay buffer] was added to bring the volume up to 130 μL. After incubating for 45 min, 50 μL of varying concentrations of tested compounds were added and the plate was incubated for an additional 15 min. Plates were then read on a FlexStation3 microplate reader (Molecular Devices) at 494/516 ex/em for a total of 120 s. After 16 s of reading, 20 μL of 200 nM CCL5 (Biosource) in assay buffer, or assay buffer alone, was added to the wells to bring the total volume up to 200 μL. The changes in calcium mobilization were monitored and peak height values were obtained using SoftMaxPro software (Molecular Devices). Non-linear regression curves and IC50 values were generated using GraphPad Prism 8.0.1 (GraphPad Software, San Diego, CA). All experiments were repeated at least three times.

[2] = tested on: GHOST CCR5 cells
Description: These compounds were concurrently assessed for cytotoxicity in GHOST-CCR5-expressing cells using the XTT assay. […] The therapeutic index (TI, TC50/EC50) values were calculated if applicable.
100 μL of GHOST CCR5 cells at a density of 1×10^4 cells/well in 10% complete DMEM (10% FBS with 1% L-glutamine and 1% Penicillin/Streptomycin) media were plated in a 96-well flat bottom plate and incubated for 24 h at 37° C./5% CO2. Following the incubation, 100 μL of each compound at 6 concentrations were added in triplicate to both efficacy and toxicity plates followed by 100 μL of HIV-1BaL at a pre-determined titer to the plates being evaluated for efficacy and 50 μL of complete DMEM to the plates being evaluated for cytotoxicity. The cultures were incubated for 6 days at 37° C./5% CO2. Following the incubation, 50 μL of cell culture supernatant was removed from the wells of the efficacy plates for subsequent evaluation of virus content by reverse transcriptase activity assay. The toxicity plates being evaluated for cytotoxicity were stained with XTT.
TC50 values for the tested compounds were derived by measuring the reduction of the tetrazolium dye XTT (2,3-bis(2-methoxy-4-nitro-5-sulfophenyl)-5-[(phenylamino)carbonyl]-2H-tetrazolium hydroxide). XTT in metabolically active cells is metabolized by the mitochondrial enzyme NADPH oxidase to a soluble formazan product. XTT solution was prepared as a stock of 1 mg/mL in RPMI-1640 without additives. Phenazine methosulfate (PMS) solution was prepared at 0.15 mg/mL in DPBS and stored in the dark at −20° C. XTT/PMS stock was prepared immediately before use by adding 40 μL of PMS per mL of XTT solution. 50 μL of XTT/PMS was added to each well of the plate and the plate was incubated for 4 h at 37° C. The plates were sealed and inverted several times to mix the soluble formazan product and the plate was read at 450 nm (650 nm reference wavelength) with a Molecular Devices SPECTRAMAX® Plus 384 96 well format spectrophotometer.

Sequence of CCR5 (P51681 whole entry): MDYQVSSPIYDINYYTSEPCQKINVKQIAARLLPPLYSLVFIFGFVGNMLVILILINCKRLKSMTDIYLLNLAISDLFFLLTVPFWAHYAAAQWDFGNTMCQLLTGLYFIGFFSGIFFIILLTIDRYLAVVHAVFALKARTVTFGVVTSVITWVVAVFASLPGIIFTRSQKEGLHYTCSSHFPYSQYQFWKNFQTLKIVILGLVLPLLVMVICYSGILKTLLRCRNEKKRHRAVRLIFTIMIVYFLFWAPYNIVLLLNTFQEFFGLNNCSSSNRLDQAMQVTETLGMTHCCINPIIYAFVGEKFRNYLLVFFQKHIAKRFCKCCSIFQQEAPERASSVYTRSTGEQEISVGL

CC(C)c1nnc(CCNC(=O)COCC(=O)NCCCCCCCNC(=O)COCC(=O)NC2CC[C@@]3(O)[C@H]4Cc5ccc(O)c6c5[C@@]3(CCN4CC3CC3)[C@H]2O6)n1C1CC2CCC(C1)N2CC[C@H](NC(=O)C1CCC(F)(F)CC1)c1ccccc1 (stereo partly shown) [VZMC013]
IC50 ([1]; HOS-CCR5 transfected with Gqi5, mean ± SEM, read-out: Inhibition of CCL5-stimulated Intracellular Ca2+ Mobilization IC50): 57.5 nM
CCR5 activation (agonism) in Ca2+ mobilization ([1]; agonist mode, range of concentrations tested): none of these compounds appeared to activate CCR5
Cytotoxicity TC50 ([2]; GHOST CCR5 cells, XTT, triplicate): >100000 nM
cell viability ([2]; any concentration ≤100 μM, untreated cells = 100%): ~100%
